Patent publication US20230404985A1, “METHODS OF TREATING TUMORS AND CANCERS HAVING DYSREGULATED WNT SIGNALING PATHWAYS” (ICAHN SCHOOL OF MEDICINE AT MOUNT SINAI, priority 2020, published 2023)

Experiments:
[1] = tested on: MYC-Tp53 tumor organoid allografts; experiment: MYC-Tp53 tumor organoid allografts; type: in vivo, C57BL/6J mice; conditions: 30 mg/kg daily oral gavage
Protocol: 300,000 cells per allograft were prepared in 8 mg/mL Matrigel. 6-8-week-old C57BL/6J mice were shaved the day prior to injection. A 26^5/8-gauge needle was used to implant organoids into the flank in 100 μL Matrigel. Tumor allografts were measured daily with calipers, and upon an average volumetric measurement of 100 mm^3, animals were randomized and drug dosing was started. Drugs were dosed daily at 30 mg/kg via oral gavage. Tumor allografts were also measured daily.
MYC-CTNNB1 tumor organoids were engrafted into C57BL/6 mice and treatment was started when tumor volume reached 100 mm^3.

[2] = tested on: KIT and its downstream effector the prenyl-binding protein PDE6D; experiment: NanoBRET live cell target engagement, KIT and PDE6D; type: cell-based
[3] = tested on: pT367 EZH2 and pT71 ATF2; conditions: MYC-CTNNB1 organoids; WNTinib 1 μM, sorafenib 10 μM, SB202190 10 μM; 48 hours time course
Protocol: Tumor organoids were grown in 24 well plates and were collected in Cell Recovery Solution (Corning) after drug treatment. Tumor organoids were left to rotate at 4° C. for one hour in order to dissolve the Matrigel. Tumor organoids were spun down at 300 g at 4° C. for 5 minutes. Pellets were lysed in 2× Laemmli buffer (+4% 2-mercaptoethanol) by heating at 95° C. for 10 minutes followed by 5 seconds of sonication. SDS-PAGE was run using standard procedures.

Compound	activity in MYC-Tp53 allografts [1]	also measured
COc1cc2nccc(Oc3ccc(NC(=O)NC4CC4)c(Cl)c3)c2cc1C(N)=O [lenvatinib]	better activity	–
CNC(=O)c1cc(Oc2ccc(NC(=O)Nc3ccc(Cl)c(C(F)(F)F)c3)c(F)c2)ccn1 [regorafenib]	better activity	–
CNC(=O)c1cc(Oc2ccc(NC(=O)Nc3ccc(C(F)(C(F)(F)F)C(F)(F)F)cc3)c(F)c2)ccn1 [8-50-2, 4-(3-fluoro-4-(3-(4-(perfluoropropan-2-yl)phenyl)ureido)phenoxy)-N-methylpicolinamide]	–	binding on KIT and PDE6D, comparison of WNTinib with 8-50-2 [2]: significant differences in binding
Oc1ccc(-c2nc(-c3ccncc3)c(-c3ccc(F)cc3)[nH]2)cc1 [SB202190]	–	temporal inhibition of pT367 EZH2 and pT71 ATF2 [3]: transient inhibition
